Assay results as given in US20070036871A1, “TECHNIQUE FOR TREATMENT AND PREVENTION OF FUNGAL DISEASES IN GROWING GRAPES BY APPLICATION OF A SODIUM CHLORITE, UREA SULFURIC ACID SOLUTION” (priority 2005, published 2007).
Where “and” joins values, the source holds several entries; their conditions need not be identical. Equal entries are not always repeated.

System: powdery mildew
Test: Field trials of foliar fungicide treatments on Carignane grape vines against powdery mildew (Example IV)
Type: in vivo
[1] = individual plot data, rated July 3 after June 22 treatment
[2] = individual plot data, rated July 12 after July 3 treatment
[3] = individual plot data, rated June 22 after June 12 treatment
[4] = rated July 3 after June 22 treatment (10 days after second treatment), average of plots
[5] = rated July 12 after July 3 treatment (10 days after third treatment), average of plots
[6] = rated June 22 after June 12 treatment (10 days after first treatment), average of plots

[S] [4-6 lb/acre sulphur, sulphur]
% fruit w/ symptoms [1]: 20% and 40% and 15% and 5% | % leaves w/ symptoms [1]: 10% and 20% and 2% and 8% | % severity of infected fruit [1]: 15% and 30% and 10% and 5% | % severity of infected leaves [1]: 15% and 20% and 4% and 5% | % fruit w/ symptoms [2]: 10% and 60% and 40% and 20% | % leaves w/ symptoms [2]: 2% (3×) and 15% | % severity of infected fruit [2]: 10% (2×) and 40% and 25% | % severity of infected leaves [2]: 5% (3×) and 2% | % fruit w/ symptoms [3]: 30% and 40% and 20% and 15% | % leaves w/ symptoms [3]: 2% (2×) and 20% and 5% | % severity of infected fruit [3]: 8% and 30% and 6% and 20% | % severity of infected leaves [3]: 2% (2×) and 18% and 5% | % fruit w/ symptoms [4]: 20% | % leaves w/ symptoms [4]: 10% | % severity of infected fruit [4]: 15% | % severity of infected leaves [4]: 11% and 20% | % fruit w/ symptoms [5]: 32.5% | % leaves w/ symptoms [5]: 5.25% | % severity of infected fruit [5]: 21.25% | % severity of infected leaves [5]: 4.25% | % fruit w/ symptoms [6]: 26.25% | % leaves w/ symptoms [6]: 7.25% | % severity of infected fruit [6]: 16% | % severity of infected leaves [6]: 6.75% | fungal disease control (in words) (ten days after the third treatment): substantially lower disease infection in leaves over the low rate NaClO2+US acid treatment
